Data reported in PubChem BioAssay (NCI).
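GI50 = concentration required for 50% inhibition of growth. TGI denotes the concentration required for complete inhibition of growth.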

Columns and labels:
Experiment in all cases: DTP human tumour cell line panel, 384-well format
786-0 renal = tested on: 786-0 renal
A498 renal = tested on: A498 renal
A549 NSCLC = tested on: A549 NSCLC
ACHN renal = tested on: ACHN renal
CAKI-1 renal = tested on: CAKI-1 renal
CCRF-CEM leukemia = tested on: CCRF-CEM leukemia
DU-145 prostate = tested on: DU-145 prostate
EKVX NSCLC = tested on: EKVX NSCLC
HCC-2998 colon = tested on: HCC-2998 colon
HCT-116 colon = tested on: HCT-116 colon
HCT-15 colon = tested on: HCT-15 colon
HL-60(TB) leukemia = tested on: HL-60(TB) leukemia
HOP-92 NSCLC = tested on: HOP-92 NSCLC
HT29 colon = tested on: HT29 colon
IGROV1 ovarian = tested on: IGROV1 ovarian
KM12 colon = tested on: KM12 colon
M14 melanoma = tested on: M14 melanoma
MALME-3M melanoma = tested on: MALME-3M melanoma
MCF7 breast = tested on: MCF7 breast
MDA-MB-435 melanoma = tested on: MDA-MB-435 melanoma
MDA-MB-468 breast = tested on: MDA-MB-468 breast
NCI-H23 lung = tested on: NCI-H23 lung
NCI-H322M lung = tested on: NCI-H322M lung
NCI-H460 NSCLC = tested on: NCI-H460 NSCLC
NCI/ADR-RES ovarian = tested on: NCI/ADR-RES ovarian
OVCAR-3 ovarian = tested on: OVCAR-3 ovarian
OVCAR-4 ovarian = tested on: OVCAR-4 ovarian
OVCAR-8 ovarian = tested on: OVCAR-8 ovarian
PC-3 prostate = tested on: PC-3 prostate
RPMI-8226 leukemia = tested on: RPMI-8226 leukemia
RXF 393 renal = tested on: RXF 393 renal
SF-268 CNS = tested on: SF-268 CNS
SF-295 CNS = tested on: SF-295 CNS
SF-539 CNS = tested on: SF-539 CNS
SK-MEL-2 melanoma = tested on: SK-MEL-2 melanoma
SK-MEL-28 melanoma = tested on: SK-MEL-28 melanoma
SK-OV-3 ovarian = tested on: SK-OV-3 ovarian
SNB-19 CNS = tested on: SNB-19 CNS
SNB-75 CNS = tested on: SNB-75 CNS
SR leukemia = tested on: SR leukemia
SW-620 colon = tested on: SW-620 colon
T-47D breast = tested on: T-47D breast
TK-10 renal = tested on: TK-10 renal
U251 glioblastoma = tested on: U251 glioblastoma
UACC-257 melanoma = tested on: UACC-257 melanoma
UACC-62 melanoma = tested on: UACC-62 melanoma
UO-31 renal = tested on: UO-31 renal

CS(=O)(=O)c1ccc(C(=O)Nc2ccc(Cl)c(-c3ccccn3)c2)c(Cl)c1
GI50 (786-0 renal): 22.8 µM
TGI (786-0 renal): 58.3 µM
GI50 (A498 renal): 31.9 µM
TGI (A498 renal): > 71.7 µM
GI50 (A549 NSCLC): 41.1 µM
TGI (A549 NSCLC): > 100 µM
GI50 (ACHN renal): 35.6 µM
TGI (ACHN renal): > 81.7 µM
GI50 (CAKI-1 renal): 36.6 µM
TGI (CAKI-1 renal): > 83.8 µM
GI50 (CCRF-CEM leukemia): 19.9 µM
TGI (CCRF-CEM leukemia): 50 µM
GI50 (DU-145 prostate): 42.5 µM
TGI (DU-145 prostate): > 86.8 µM
GI50 (EKVX NSCLC): 48.3 µM
TGI (EKVX NSCLC): > 90.5 µM
GI50 (HCC-2998 colon): 24.6 µM
TGI (HCC-2998 colon): 56.8 µM
GI50 (HCT-116 colon): 58.3 µM
TGI (HCT-116 colon): > 100 µM
GI50 (HCT-15 colon): 26.2 µM
TGI (HCT-15 colon): > 70.8 µM
GI50 (HL-60(TB) leukemia): 19.6 µM
TGI (HL-60(TB) leukemia): 49.1 µM
GI50 (HOP-92 NSCLC): 31.2 µM
TGI (HOP-92 NSCLC): 79 µM
GI50 (HT29 colon): 18.3 µM
TGI (HT29 colon): 36.7 µM
GI50 (IGROV1 ovarian): 56.6 µM
TGI (IGROV1 ovarian): > 100 µM
GI50 (KM12 colon): 17.9 µM
TGI (KM12 colon): > 56.7 µM
GI50 (M14 melanoma): 47.5 µM
TGI (M14 melanoma): > 100 µM
GI50 (MALME-3M melanoma): 19 µM
TGI (MALME-3M melanoma): 61.2 µM
GI50 (MCF7 breast): 35.3 µM
TGI (MCF7 breast): > 82.8 µM
GI50 (MDA-MB-435 melanoma): > 62 µM
TGI (MDA-MB-435 melanoma): > 100 µM
GI50 (MDA-MB-468 breast): 22.2 µM
TGI (MDA-MB-468 breast): 46.7 µM
GI50 (NCI-H23 lung): > 61.2 µM
TGI (NCI-H23 lung): > 100 µM
GI50 (NCI-H322M lung): 67.2 µM
TGI (NCI-H322M lung): > 100 µM
GI50 (NCI-H460 NSCLC): 30.8 µM
TGI (NCI-H460 NSCLC): > 70.3 µM
GI50 (NCI/ADR-RES ovarian): 25.3 µM
TGI (NCI/ADR-RES ovarian): 71.7 µM
GI50 (OVCAR-3 ovarian): 35.9 µM
TGI (OVCAR-3 ovarian): > 83 µM
GI50 (OVCAR-4 ovarian): 32.6 µM
TGI (OVCAR-4 ovarian): > 84.5 µM
GI50 (OVCAR-8 ovarian): 45.7 µM
TGI (OVCAR-8 ovarian): 99.4 µM
GI50 (PC-3 prostate): 55 µM
TGI (PC-3 prostate): > 100 µM
GI50 (RPMI-8226 leukemia): 25 µM
TGI (RPMI-8226 leukemia): 61.5 µM
GI50 (RXF 393 renal): 22.7 µM
TGI (RXF 393 renal): 51.9 µM
GI50 (SF-268 CNS): 45 µM
TGI (SF-268 CNS): > 100 µM
GI50 (SF-295 CNS): 33 µM
TGI (SF-295 CNS): > 67.7 µM
GI50 (SF-539 CNS): 49.1 µM
TGI (SF-539 CNS): > 100 µM
GI50 (SK-MEL-2 melanoma): 33.8 µM
TGI (SK-MEL-2 melanoma): > 100 µM
GI50 (SK-MEL-28 melanoma): > 53.4 µM
TGI (SK-MEL-28 melanoma): > 100 µM
GI50 (SK-OV-3 ovarian): > 72.5 µM
TGI (SK-OV-3 ovarian): > 100 µM
GI50 (SNB-19 CNS): > 64.8 µM
TGI (SNB-19 CNS): > 100 µM
GI50 (SNB-75 CNS): 32.3 µM
TGI (SNB-75 CNS): 80.3 µM
GI50 (SR leukemia): 29 µM
TGI (SR leukemia): 50.6 µM
GI50 (SW-620 colon): > 64 µM
TGI (SW-620 colon): > 100 µM
GI50 (T-47D breast): 21.4 µM
TGI (T-47D breast): 59.7 µM
GI50 (TK-10 renal): > 52.9 µM
TGI (TK-10 renal): > 100 µM
GI50 (U251 glioblastoma): 49.5 µM
TGI (U251 glioblastoma): > 100 µM
GI50 (UACC-257 melanoma): 49.6 µM
TGI (UACC-257 melanoma): > 89.7 µM
GI50 (UACC-62 melanoma): 44.4 µM
TGI (UACC-62 melanoma): > 79.3 µM
GI50 (UO-31 renal): 35.4 µM
TGI (UO-31 renal): > 80.3 µM
